Source: ChEMBL document CHEMBL4507280 (2021)

Columns and labels:
[1] = biological target: Serine/threonine-protein kinase ICK (Homo sapiens) (UniProt Q9UPZ9); details: Compound concentration 1000.0 nM
[2] = biological target: Mitogen-activated protein kinase kinase kinase 14 (Homo sapiens) (UniProt Q99558); details: Compound concentration 1000.0 nM
[3] = biological target: Non-receptor tyrosine-protein kinase TNK1 (Homo sapiens) (UniProt Q13470); details: Compound concentration 1000.0 nM
[4] = biological target: Sigma intracellular receptor 2 (Homo sapiens, UniProt Q5BJF2); details: Compound concentration 10.0 uM
[5] = biological target: Tyrosine-protein kinase Lck (Homo sapiens) (UniProt P06239); details: Compound concentration 1000.0 nM
[6] = biological target: Serine/threonine-protein kinase SIK2 (Homo sapiens) (UniProt Q9H0K1); details: Compound concentration 1000.0 nM
[7] = biological target: Tyrosine-protein kinase ABL1 (Homo sapiens) (UniProt P00519); details: Compound concentration 1000.0 nM
[8] = biological target: Cyclin-dependent kinase-like 1 (Homo sapiens) (UniProt Q00532); details: Compound concentration 1000.0 nM
Sequence of Cyclin-dependent kinase-like 1 (Homo sapiens) (Q00532 whole entry): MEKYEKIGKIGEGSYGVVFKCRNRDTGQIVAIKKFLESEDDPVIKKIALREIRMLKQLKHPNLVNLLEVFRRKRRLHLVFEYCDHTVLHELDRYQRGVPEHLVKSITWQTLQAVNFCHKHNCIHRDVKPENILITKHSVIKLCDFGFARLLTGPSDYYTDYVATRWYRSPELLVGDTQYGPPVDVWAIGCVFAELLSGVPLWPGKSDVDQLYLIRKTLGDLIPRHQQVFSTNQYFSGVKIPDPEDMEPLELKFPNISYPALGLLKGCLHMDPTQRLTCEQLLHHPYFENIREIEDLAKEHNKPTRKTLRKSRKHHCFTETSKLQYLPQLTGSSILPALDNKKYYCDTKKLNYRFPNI

[9] = biological target: Serine/threonine-protein kinase BRSK2 (Homo sapiens) (UniProt Q8IWQ3); details: Compound concentration 1000.0 nM
Sequence of Serine/threonine-protein kinase BRSK2 (Homo sapiens) (Q8IWQ3 whole entry): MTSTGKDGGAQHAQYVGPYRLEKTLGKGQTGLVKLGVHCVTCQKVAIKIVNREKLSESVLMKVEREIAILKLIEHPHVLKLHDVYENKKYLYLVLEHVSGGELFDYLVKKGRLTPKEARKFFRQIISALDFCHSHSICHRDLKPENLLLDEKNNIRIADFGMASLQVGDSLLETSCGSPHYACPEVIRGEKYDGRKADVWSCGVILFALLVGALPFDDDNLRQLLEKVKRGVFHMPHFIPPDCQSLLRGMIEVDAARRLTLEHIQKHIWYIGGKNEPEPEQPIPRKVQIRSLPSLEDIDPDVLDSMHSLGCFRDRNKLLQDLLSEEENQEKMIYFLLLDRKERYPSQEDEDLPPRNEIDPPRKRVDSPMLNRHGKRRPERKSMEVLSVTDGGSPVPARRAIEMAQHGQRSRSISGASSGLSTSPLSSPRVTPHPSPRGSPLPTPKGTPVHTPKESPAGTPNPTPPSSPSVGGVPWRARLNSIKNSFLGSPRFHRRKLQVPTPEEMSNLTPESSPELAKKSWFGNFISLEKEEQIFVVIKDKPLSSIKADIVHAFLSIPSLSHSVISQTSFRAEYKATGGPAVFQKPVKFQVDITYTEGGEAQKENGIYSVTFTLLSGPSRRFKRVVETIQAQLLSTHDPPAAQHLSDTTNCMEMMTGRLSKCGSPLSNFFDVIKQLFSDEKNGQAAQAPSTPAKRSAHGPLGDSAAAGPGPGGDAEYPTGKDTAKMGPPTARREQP

[10] = biological target: Serine/threonine-protein kinase 25 (Homo sapiens) (UniProt O00506); details: Compound concentration 1000.0 nM
[11] = biological target: Mitogen-activated protein kinase 11 (Homo sapiens) (UniProt Q15759); details: Compound concentration 1000.0 nM
Sequence of Mitogen-activated protein kinase 11 (Homo sapiens) (Q15759 whole entry): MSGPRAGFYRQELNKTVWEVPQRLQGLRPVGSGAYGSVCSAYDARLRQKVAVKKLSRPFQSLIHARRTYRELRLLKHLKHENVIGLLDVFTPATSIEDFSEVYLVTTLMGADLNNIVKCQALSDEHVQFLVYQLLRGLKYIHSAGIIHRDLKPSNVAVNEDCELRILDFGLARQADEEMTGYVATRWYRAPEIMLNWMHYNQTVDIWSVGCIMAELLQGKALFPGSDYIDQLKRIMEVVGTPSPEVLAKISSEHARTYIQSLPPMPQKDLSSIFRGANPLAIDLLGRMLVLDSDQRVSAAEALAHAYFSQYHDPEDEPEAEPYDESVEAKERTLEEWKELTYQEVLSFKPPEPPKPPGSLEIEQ

[12] = biological target: D(1A) dopamine receptor (Homo sapiens) (UniProt P21728); details: Compound concentration 10.0 uM
[13] = biological target: Serine/threonine-protein kinase 17A (Homo sapiens) (UniProt Q9UEE5); details: Compound concentration 1000.0 nM
[14] = biological target: Death-associated protein kinase 1 (Homo sapiens) (UniProt P53355); details: Compound concentration 1000.0 nM
[15] = biological target: Serine/threonine-protein kinase OSR1 (Homo sapiens) (UniProt O95747); details: Compound concentration 1000.0 nM
Sequence of Serine/threonine-protein kinase OSR1 (Homo sapiens) (O95747 2-527 limits assumed): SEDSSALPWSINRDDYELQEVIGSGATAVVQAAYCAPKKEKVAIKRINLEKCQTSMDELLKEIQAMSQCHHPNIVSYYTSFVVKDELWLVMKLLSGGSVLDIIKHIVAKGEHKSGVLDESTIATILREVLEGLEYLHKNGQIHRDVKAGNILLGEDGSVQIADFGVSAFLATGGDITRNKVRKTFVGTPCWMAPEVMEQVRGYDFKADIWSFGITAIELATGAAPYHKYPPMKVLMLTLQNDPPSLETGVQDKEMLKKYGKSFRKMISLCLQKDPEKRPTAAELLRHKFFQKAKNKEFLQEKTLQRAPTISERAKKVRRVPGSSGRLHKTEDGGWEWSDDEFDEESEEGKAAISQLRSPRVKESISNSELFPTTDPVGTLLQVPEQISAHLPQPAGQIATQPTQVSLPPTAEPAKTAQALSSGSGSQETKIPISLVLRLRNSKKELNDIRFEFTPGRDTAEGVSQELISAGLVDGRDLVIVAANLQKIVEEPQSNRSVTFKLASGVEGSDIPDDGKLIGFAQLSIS

[16] = system: Epidermal growth factor receptor (Homo sapiens), P00533 [UNDEFINED MUTATION]; details: Compound concentration 1000.0 nM
[17] = system: Proto-oncogene tyrosine-protein kinase receptor Ret (Homo sapiens), P07949 [V804L]; details: Compound concentration 1000.0 nM
[18] = biological target: TRAF2 and NCK-interacting protein kinase (Homo sapiens) (UniProt Q9UKE5); details: Compound concentration 1000.0 nM
[19] = biological target: Serine/threonine-protein kinase PAK 6 (Homo sapiens) (UniProt Q9NQU5); details: Compound concentration 1000.0 nM
[20] = biological target: Serine/threonine-protein kinase pim-1 (Homo sapiens) (UniProt P11309); details: Compound concentration 1000.0 nM
[21] = biological target: Discoidin domain-containing receptor 2 (Homo sapiens) (UniProt Q16832); details: Compound concentration 1000.0 nM
[22] = biological target: Mitogen-activated protein kinase kinase kinase 5 (Homo sapiens) (UniProt Q99683); details: Compound concentration 1000.0 nM
[23] = biological target: Mast/stem cell growth factor receptor Kit (Homo sapiens) (UniProt P10721); details: Compound concentration 1000.0 nM
[24] = biological target: Phosphatidylinositol 4-phosphate 5-kinase type-1 alpha (Homo sapiens) (UniProt Q99755); details: Compound concentration 1000.0 nM
[25] = biological target: Phosphorylase b kinase gamma catalytic chain, skeletal muscle/heart isoform (Homo sapiens) (UniProt Q16816); details: Compound concentration 1000.0 nM
[26] = biological target: Sodium-dependent serotonin transporter (Homo sapiens) (UniProt P31645); details: Compound concentration 10.0 uM
[27] = system: Tyrosine-protein kinase ABL1 (Homo sapiens), P00519 [F317L]; details: Compound concentration 1000.0 nM
[28] = biological target: 3-phosphoinositide-dependent protein kinase 1 (Homo sapiens) (UniProt O15530); details: Compound concentration 1000.0 nM
Sequence of 3-phosphoinositide-dependent protein kinase 1 (Homo sapiens) (O15530 whole entry): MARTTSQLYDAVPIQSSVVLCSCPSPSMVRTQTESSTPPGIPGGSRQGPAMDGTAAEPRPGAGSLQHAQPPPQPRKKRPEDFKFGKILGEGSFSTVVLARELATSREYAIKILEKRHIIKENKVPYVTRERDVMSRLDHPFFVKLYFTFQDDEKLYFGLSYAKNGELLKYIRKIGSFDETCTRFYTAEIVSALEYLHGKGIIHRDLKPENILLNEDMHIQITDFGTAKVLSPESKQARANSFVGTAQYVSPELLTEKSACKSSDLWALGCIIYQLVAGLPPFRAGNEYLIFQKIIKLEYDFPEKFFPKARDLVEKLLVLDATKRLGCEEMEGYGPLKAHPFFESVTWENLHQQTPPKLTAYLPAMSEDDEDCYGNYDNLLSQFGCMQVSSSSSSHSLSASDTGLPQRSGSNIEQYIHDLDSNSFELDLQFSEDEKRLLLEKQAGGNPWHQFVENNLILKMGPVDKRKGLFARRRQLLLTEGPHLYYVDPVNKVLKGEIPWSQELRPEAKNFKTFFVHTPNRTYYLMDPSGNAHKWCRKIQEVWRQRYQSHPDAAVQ

[29] = biological target: ALK tyrosine kinase receptor (Homo sapiens) (UniProt Q9UM73); details: Compound concentration 1000.0 nM
[30] = biological target: Myosin-IIIa (Homo sapiens) (UniProt Q8NEV4); details: Compound concentration 1000.0 nM
[31] = biological target: Phosphatidylinositol 5-phosphate 4-kinase type-2 beta (Homo sapiens) (UniProt P78356); details: Compound concentration 1000.0 nM
[32] = biological target: Serine/threonine-protein kinase TAO1 (Homo sapiens) (UniProt Q7L7X3); details: Compound concentration 1000.0 nM
Sequence of Serine/threonine-protein kinase TAO1 (Homo sapiens) (Q7L7X3 whole entry): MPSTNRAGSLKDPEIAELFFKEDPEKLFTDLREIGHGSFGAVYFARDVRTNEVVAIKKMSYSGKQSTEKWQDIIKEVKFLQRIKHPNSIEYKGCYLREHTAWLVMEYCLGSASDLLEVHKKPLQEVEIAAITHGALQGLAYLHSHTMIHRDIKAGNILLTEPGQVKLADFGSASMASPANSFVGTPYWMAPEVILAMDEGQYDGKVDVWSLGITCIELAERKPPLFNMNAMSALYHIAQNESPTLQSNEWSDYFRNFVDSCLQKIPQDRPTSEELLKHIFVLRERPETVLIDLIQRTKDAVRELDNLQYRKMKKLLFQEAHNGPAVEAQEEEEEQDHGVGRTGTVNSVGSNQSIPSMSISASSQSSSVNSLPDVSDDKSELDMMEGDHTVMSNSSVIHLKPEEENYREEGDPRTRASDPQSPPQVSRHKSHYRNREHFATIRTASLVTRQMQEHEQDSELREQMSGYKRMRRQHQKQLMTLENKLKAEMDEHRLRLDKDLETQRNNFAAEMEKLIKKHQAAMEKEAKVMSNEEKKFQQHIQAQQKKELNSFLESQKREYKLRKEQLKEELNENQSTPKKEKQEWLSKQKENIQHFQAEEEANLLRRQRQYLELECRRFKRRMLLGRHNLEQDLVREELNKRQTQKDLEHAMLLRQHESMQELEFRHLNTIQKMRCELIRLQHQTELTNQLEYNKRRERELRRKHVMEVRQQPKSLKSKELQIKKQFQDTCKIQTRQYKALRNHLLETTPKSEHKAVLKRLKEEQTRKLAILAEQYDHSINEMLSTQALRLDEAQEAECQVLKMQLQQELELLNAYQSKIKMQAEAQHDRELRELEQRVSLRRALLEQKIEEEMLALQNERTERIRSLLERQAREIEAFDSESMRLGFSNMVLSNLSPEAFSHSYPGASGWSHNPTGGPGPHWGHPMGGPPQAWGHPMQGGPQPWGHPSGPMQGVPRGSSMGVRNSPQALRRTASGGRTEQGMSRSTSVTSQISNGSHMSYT

[33] = biological target: Mitogen-activated protein kinase kinase kinase 1 (Homo sapiens) (UniProt Q13233); details: Compound concentration 1000.0 nM
[34] = biological target: Calcium/calmodulin-dependent protein kinase type 1B (Homo sapiens) (UniProt Q6P2M8); details: Compound concentration 1000.0 nM
[35] = biological target: Mitogen-activated protein kinase kinase kinase 12 (Homo sapiens) (UniProt Q12852); details: Compound concentration 1000.0 nM
[36] = system: Epidermal growth factor receptor (Homo sapiens), P00533 [G719S]; details: Compound concentration 1000.0 nM
[37] = biological target: Fibroblast growth factor receptor 3 (Homo sapiens) (UniProt P22607); details: Compound concentration 1000.0 nM
[38] = biological target: Dual specificity mitogen-activated protein kinase kinase 3 (Homo sapiens) (UniProt P46734); details: Compound concentration 1000.0 nM
Sequence of Dual specificity mitogen-activated protein kinase kinase 3 (Homo sapiens) (P46734 whole entry): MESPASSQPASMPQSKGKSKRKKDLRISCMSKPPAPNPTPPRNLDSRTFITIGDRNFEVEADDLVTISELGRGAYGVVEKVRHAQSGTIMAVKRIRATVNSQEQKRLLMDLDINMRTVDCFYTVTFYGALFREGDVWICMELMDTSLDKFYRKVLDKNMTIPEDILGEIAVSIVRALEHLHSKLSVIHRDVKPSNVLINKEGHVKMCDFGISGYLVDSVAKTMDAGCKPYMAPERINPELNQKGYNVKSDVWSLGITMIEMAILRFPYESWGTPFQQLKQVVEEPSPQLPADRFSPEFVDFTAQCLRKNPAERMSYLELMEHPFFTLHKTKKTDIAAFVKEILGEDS

[39] = biological target: Macrophage-stimulating protein receptor (Homo sapiens) (UniProt Q04912); details: Compound concentration 1000.0 nM
[40] = system: Tyrosine-protein kinase ABL1 (Homo sapiens), P00519 [T315I]; details: Compound concentration 1000.0 nM
[41] = biological target: D(1B) dopamine receptor (Homo sapiens) (UniProt P21918); details: Compound concentration 10.0 uM
Sequence of D(1B) dopamine receptor (Homo sapiens) (P21918 whole entry): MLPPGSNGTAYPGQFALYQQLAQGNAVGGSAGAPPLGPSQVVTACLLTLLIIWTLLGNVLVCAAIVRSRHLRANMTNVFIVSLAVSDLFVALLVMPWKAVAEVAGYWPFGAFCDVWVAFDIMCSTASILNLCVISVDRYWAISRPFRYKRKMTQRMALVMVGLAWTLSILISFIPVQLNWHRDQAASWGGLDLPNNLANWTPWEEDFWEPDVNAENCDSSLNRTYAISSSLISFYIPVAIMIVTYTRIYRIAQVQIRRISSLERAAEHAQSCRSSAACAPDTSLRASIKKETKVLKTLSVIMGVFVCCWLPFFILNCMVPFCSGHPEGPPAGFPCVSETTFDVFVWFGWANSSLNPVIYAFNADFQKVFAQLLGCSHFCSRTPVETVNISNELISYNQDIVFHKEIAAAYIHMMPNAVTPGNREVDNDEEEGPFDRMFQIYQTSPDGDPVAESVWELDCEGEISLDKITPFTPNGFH

[42] = biological target: Atypical kinase COQ8A, mitochondrial (Homo sapiens) (UniProt Q8NI60); details: Compound concentration 1000.0 nM
Sequence of Atypical kinase COQ8A, mitochondrial (Homo sapiens) (Q8NI60 163-647 limits assumed): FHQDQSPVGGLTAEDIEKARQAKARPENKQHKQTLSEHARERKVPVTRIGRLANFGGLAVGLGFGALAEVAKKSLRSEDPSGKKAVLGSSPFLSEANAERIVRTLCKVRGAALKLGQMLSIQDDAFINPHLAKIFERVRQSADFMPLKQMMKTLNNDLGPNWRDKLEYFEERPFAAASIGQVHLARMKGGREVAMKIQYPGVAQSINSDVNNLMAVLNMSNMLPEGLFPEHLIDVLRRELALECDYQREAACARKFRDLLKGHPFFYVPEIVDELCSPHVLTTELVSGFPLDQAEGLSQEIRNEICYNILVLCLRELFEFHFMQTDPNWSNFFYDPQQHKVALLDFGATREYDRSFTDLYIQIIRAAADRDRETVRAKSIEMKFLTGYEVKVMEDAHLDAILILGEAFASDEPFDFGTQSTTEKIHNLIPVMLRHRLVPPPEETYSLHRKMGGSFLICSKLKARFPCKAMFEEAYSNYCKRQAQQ

[43] = biological target: Cyclin-dependent kinase-like 5 (Homo sapiens) (UniProt O76039); details: Compound concentration 1000.0 nM
[44] = biological target: Mitogen-activated protein kinase kinase kinase 3 (Homo sapiens) (UniProt Q99759); details: Compound concentration 1000.0 nM
[45] = biological target: Inhibitor of nuclear factor kappa-B kinase subunit epsilon (Homo sapiens) (UniProt Q14164); details: Compound concentration 1000.0 nM

Compound: CCC(=O)N[C@H]1CC[C@@H](C(=O)N(C)c2ccc(-c3nc4ccccc4o3)cc2)C1 [BI 99179]
- residual activity [1]: 70%
- residual activity [2]: 92%
- residual activity [3]: 100%
- inhibition [4]: 33.6%
- residual activity [5]: 89%
- residual activity [6]: 78%
- residual activity [7]: 85%
- residual activity [8]: 95%
- residual activity [9]: 97%
- residual activity [10]: 100%
- residual activity [11]: 82%
- inhibition [12]: -2.15%
- residual activity [13]: 91%
- residual activity [14]: 96%
- residual activity [15]: 83%
- residual activity [16]: 97%
- residual activity [17]: 98%
- residual activity [18]: 100%
- residual activity [19]: 100%
- residual activity [20]: 100%
- residual activity [21]: 100%
- residual activity [22]: 100%
- residual activity [23]: 84%
- residual activity [24]: 100%
- residual activity [25]: 100%
- inhibition [26]: 32.8%
- residual activity [27]: 72%
- residual activity [28]: 90%
- residual activity [29]: 86%
- residual activity [30]: 100%
- residual activity [31]: 54%
- residual activity [32]: 100%
- residual activity [33]: 73%
- residual activity [34]: 92%
- residual activity [35]: 100%
- residual activity [36]: 100%
- residual activity [37]: 98%
- residual activity [38]: 77%
- residual activity [39]: 87%
- residual activity [40]: 89%
- inhibition [41]: -9.45%
- residual activity [42]: 100%
- residual activity [43]: 82%
- residual activity [44]: 89%
- residual activity [45]: 52%

Compound: CCC(=O)N[C@@H]1CC[C@H](C(=O)N(C)c2ccc(-c3nc4ccccc4o3)cc2)C1 [BI 99990]
- residual activity [1]: 92%
- residual activity [2]: 100%
- residual activity [3]: 100%
- inhibition [4]: 62.9%
- residual activity [5]: 100%
- residual activity [6]: 100%
- residual activity [7]: 76%
- residual activity [8]: 90%
- residual activity [9]: 76%
- residual activity [10]: 100%
- residual activity [11]: 83%
- inhibition [12]: -1.16%
- residual activity [13]: 100%
- residual activity [14]: 100%
- residual activity [15]: 100%
- residual activity [16]: 100%
- residual activity [17]: 100%
- residual activity [18]: 100%
- residual activity [19]: 100%
- residual activity [20]: 100%
- residual activity [21]: 92%
- residual activity [22]: 100%
- residual activity [23]: 93%
- residual activity [24]: 86%
- residual activity [25]: 100%
- inhibition [26]: 20.2%
- residual activity [27]: 86%
- residual activity [28]: 100%
- residual activity [29]: 99%
- residual activity [30]: 100%
- residual activity [31]: 45%
- residual activity [32]: 97%
- residual activity [33]: 74%
- residual activity [34]: 100%
- residual activity [35]: 100%
- residual activity [36]: 96%
- residual activity [37]: 100%
- residual activity [38]: 91%
- residual activity [39]: 100%
- residual activity [40]: 87%
- inhibition [41]: 4.47%
- residual activity [42]: 99%
- residual activity [43]: 100%
- residual activity [44]: 96%
- residual activity [45]: 60%
